Patent US9969752B2, “Inhibitors of HIF prolyl hydroxylase” (MERCK SHARP & DOHME CORP., priority 2014, dated 2018)

molecular target: T1, Human HIF-PHD2 (Homo sapiens, UniProt Q9GZT9); experiment: Inhibition of the hydroxylation of a HIF peptide by PHD2 (time resolved fluorescence, 384-well); format: biochemical; conditions: FLAG-tagged full length PHD2; 0.2 μM 2-oxoglutarate, 0.5 μM HIF-1α peptide; 45 minutes at room temperature; read-out: Human HIF-PHD2 IC50
T1 construct: FLAG-tagged full length PHD2 expressed in and purified from baculovirus-infected Sf9 cells; FLAG; made in house; host or cells: baculovirus-infected Sf9 cells
Description: To each well of a 384-well plate, 1 μL of test compounds in DMSO (final concentration ranging from 0.3 nM to 10 uM) were added into 20 μl of assay buffer (50 mM Tris pH 7.4/0.01% Tween-20/0.1 mg/ml bovine serum albumin/10 μM ferrous sulfate/1 mM sodium ascorbate/20 μg/ml catalase) containing 0.15 μg/ml FLAG-tagged full length PHD2 expressed in and purified from baculovirus-infected Sf9 cells. After a 5 min preincubation at room temperature, the enzymatic reactions were initiated by the addition of 4 μL of substrates {final concentrations of 0.2 μM 2-oxoglutarate and 0.5 μM HIF-1α peptide biotinyl-[…] […] After incubation for 45 minutes at room temperature, the reactions were terminated by the addition of a 25 μL quench/detection mix to a final concentration of 1 mM ortho-phenanthroline, 0.1 mM EDTA, 0.5 nM anti-(His)6 LANCE reagent (Perkin-Elmer Life Sciences), 100 nM AF647-labeled streptavidin (Invitrogen), and 2 μg/ml (His)6-VHL complex {S. Tan Protein Expr. Purif.

T1 sequence (Q9GZT9 whole entry): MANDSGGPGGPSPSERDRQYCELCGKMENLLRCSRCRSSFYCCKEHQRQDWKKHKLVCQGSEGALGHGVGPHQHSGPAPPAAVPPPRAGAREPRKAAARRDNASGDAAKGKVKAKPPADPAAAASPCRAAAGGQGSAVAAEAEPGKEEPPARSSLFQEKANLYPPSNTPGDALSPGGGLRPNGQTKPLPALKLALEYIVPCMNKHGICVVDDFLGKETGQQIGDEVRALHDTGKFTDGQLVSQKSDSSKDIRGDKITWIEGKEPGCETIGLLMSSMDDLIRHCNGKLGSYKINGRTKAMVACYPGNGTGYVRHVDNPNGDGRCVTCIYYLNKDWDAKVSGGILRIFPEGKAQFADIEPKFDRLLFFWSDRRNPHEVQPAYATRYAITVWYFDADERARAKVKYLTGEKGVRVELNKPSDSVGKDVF

With `O=C(O)CNC(=O)c1c(O)c2cc(Cl)cc3c2n(c1=O)CC(c1ccc(C(F)(F)F)cc1)O3` (single isomer, unassigned) [Example 74, 2-(9-Chloro-7-hydroxy-5-oxo-2-(4-(trifluoromethyl)phenyl)-3,5-dihydro-2H-[1,4]oxazino[2,3,4-ij]quinoline-6-carboxamido)acetic acid] as the molecule, how does the IC50 read?
The IC50 was 10 nM.

With `N#Cc1ccc(C2Cn3c(=O)c(C(=O)NCC(=O)O)c(O)c4ccc(C(F)(F)F)c(c43)O2)cc1` (single isomer, unassigned) [Example 77, 2-(2-(4-cyanophenyl)-7-hydroxy-5-oxo-10-(trifluoromethyl)-3,5-dihydro-2H-[1,4]oxazino[2,3,4-ij]quinoline-6-carboxamido)acetic acid] as the molecule, how does the IC50 read?
Its IC50 is 2 nM.

How did the IC50 turn out when `O=C(O)CNC(=O)c1c(O)c2c(OC(F)(F)F)ccc3c2n(c1=O)CC(c1ccc(C(F)(F)F)cc1)O3` (single isomer, unassigned) [Example 86, 2-(7-Hydroxy-5-oxo-8-(trifluoromethoxy)-2-(4-(trifluoromethyl)phenyl)-3,5-dihydro-2H-[1,4]oxazino[2,3,4-ij]quinoline-6-carboxamido)acetic acid] was run?
The IC50 was 14 nM.

How did the IC50 turn out when `N#Cc1ccc(C2Cn3c(=O)c(C(=O)NCC(=O)O)c(O)c4c(OC(F)(F)F)ccc(c43)O2)cc1` (single isomer, unassigned) [Example 88, 2-(2-(4-Cyanophenyl)-7-hydroxy-5-oxo-8-(trifluoromethoxy)-3,5-dihydro-2H-[1,4]oxazino[2,3,4-ij]quinoline-6-carboxamido)acetic acid] was run?
The IC50 was 8.5 nM.

With `O=C(O)CNC(=O)c1c(O)c2cccc3c2n(c1=O)C(c1ccccc1)CC3` (single isomer, unassigned) [Example 130, 2-(1-Hydroxy-3-oxo-5-phenyl-3,5,6,7-tetrahydropyrido[3,2,1-ij]quinoline-2-carboxamido)acetic acid] as the molecule, how does the IC50 read?
The IC50 was 18 nM.

For `O=C(O)CNC(=O)c1c(O)c2cccc3c2n(c1=O)C(Cc1ccc(C(F)(F)F)cc1)CO3` (centres unmarked) [Example 3, 2-(7-Hydroxy-5-oxo-3-(4-(trifluoromethyl)benzyl)-3,5-dihydro-2H-[1,4]oxazino[2,3,4-ij]quinoline-6-carboxamido)acetic acid], which IC50 is on record?
The IC50 was 21 nM.

With `N#Cc1cc2c3c(c1)c(O)c(C(=O)NCC(=O)O)c(=O)n3C(Cc1ccc(C(F)(F)F)cc1)CO2` (centres unmarked) [Example 4, 2-(9-Cyano-7-hydroxy-5-oxo-3-(4-(trifluoromethyl)benzyl)-3,5-dihydro-2H-[1,4]oxazino[2,3,4-ij]quinoline-6-carboxamido)acetic acid] as the molecule, how does the IC50 read?
Its IC50 is 3 nM.

`O=C(O)CNC(=O)c1c(O)c2cc(Br)cc3c2n(c1=O)C(Cc1ccc(C(F)(F)F)cc1)CO3` (centres unmarked) [Example 5, 2-(9-Bromo-7-hydroxy-5-oxo-3-(4-(trifluoromethyl)benzyl)-3,5-dihydro-2H-[1,4]oxazino[2,3,4-ij]quinoline-6-carboxamido)acetic acid] was tested. Which IC50 did it give?
Its IC50 is 18 nM.

With `CS(=O)(=O)c1cc2c3c(c1)c(O)c(C(=O)NCC(=O)O)c(=O)n3C(Cc1ccc(C(F)(F)F)cc1)CO2` (centres unmarked) [Example 6, 2-(7-Hydroxy-9-(methylsulfonyl)-5-oxo-3-(4-(trifluoromethyl)benzyl)-3,5-dihydro-2H-[1,4]oxazino[2,3,4-ij]quinoline-6-carboxamido)acetic acid] as the molecule, how does the IC50 read?
The IC50 was 1.7 nM.

`Cc1cc2c3c(c1)c(O)c(C(=O)NCC(=O)O)c(=O)n3C(Cc1ccc(C(F)(F)F)cc1)CO2` (centres unmarked) [Example 7, 2-(7-hydroxy-9-methyl-5-oxo-3-(4-(trifluoromethyl)benzyl)-3,5-dihydro-2H-[1,4]oxazino[2,3,4-ij]quinoline-6-carboxamido)acetic acid] was tested. Which IC50 did it give?
The IC50 was 37 nM.

With `CC(O)(CO)c1cc2c3c(c1)c(O)c(C(=O)NCC(=O)O)c(=O)n3C(Cc1ccc(C(F)(F)F)cc1)CO2` (centres unmarked) [Example 8, 2-(9-(1,2-Dihydroxypropan-2-yl)-7-hydroxy-5-oxo-3-(4-(trifluoromethyl)benzyl)-3,5-dihydro-2H-[1,4]oxazino[2,3,4-ij]quinoline-6-carboxamido)acetic acid] as the molecule, how does the IC50 read?
The IC50 was 30 nM.

Which IC50 does the source give for `O=C(O)CNC(=O)c1c(O)c2cccc3c2n(c1=O)CC(c1ccc(C(F)(F)F)cc1)C3` (centres unmarked) [Example 9, 2-(1-Hydroxy-3-oxo-6-(4-(trifluoromethyl)phenyl)-3,5,6,7-tetrahydropyrido[3,2,1-ij]quinoline-2-carboxamido)acetic acid] here?
The IC50 was 7.2 nM.

How did the IC50 turn out when `O=C(O)CNC(=O)c1c(O)c2cccc3c2n(c1=O)CC(c1ccc(C(F)(F)F)cc1)O3` (centres unmarked) [Example 10, 2-(7-Hydroxy-5-oxo-2-(4-(trifluoromethyl)phenyl)-3,5-dihydro-2H-[1,4]oxazino[2,3,4-ij]quinoline-6-carboxamido)acetic acid] was run?
Its IC50 is 6.4 nM.

`O=C(O)CNC(=O)c1c(O)c2c(Br)ccc3c2n(c1=O)CC(c1ccc(C(F)(F)F)cc1)O3` (centres unmarked) [Example 11, 2-(8-Bromo-7-hydroxy-5-oxo-2-(4-(trifluoromethyl)phenyl)-3,5-dihydro-2H-[1,4]oxazino[2,3,4-ij]quinoline-6-carboxamido)acetic acid] was tested. Which IC50 did it give?
The IC50 was 2.6 nM.

`CS(=O)(=O)c1ccc2c3c1c(O)c(C(=O)NCC(=O)O)c(=O)n3CC(c1ccc(C(F)(F)F)cc1)O2` (centres unmarked) [Example 12, 2-(7-Hydroxy-8-(methylsulfonyl)-5-oxo-2-(4-(trifluoromethyl)phenyl)-3,5-dihydro-2H-[1,4]oxazino[2,3,4-ij]quinoline-6-carboxamido)acetic acid] was tested. Which IC50 did it give?
Its IC50 is 19 nM.

same assay, conditions: FLAG-tagged full length PHD2; 0.2 μM 2-oxoglutarate, 0.5 μM HIF-1α peptide; 45 minutes at room temperature; read-out: MS m/z (M + 1)+ and human HIF-PHD2 IC50

For `O=C(O)CNC(=O)c1c(O)c2ccc(Cl)c3c2n(c1=O)CC(c1ccc(C(F)(F)F)cc1)O3` (single isomer, unassigned) [Example 73, 2-(10-chloro-7-hydroxy-5-oxo-2-(4-(trifluoromethyl)phenyl)-3,5-dihydro-2H-[1,4]oxazino[2,3,4-ij]quinoline-6-carboxamido)acetic acid], which IC50 is on record?
Its IC50 is 2.8 nM.

`O=C(O)CNC(=O)c1c(O)c2cc(Cl)cc3c2n(c1=O)CC(c1ccc(C(F)(F)F)cc1)O3` (single isomer, unassigned) [Example 75, 2-(9-chloro-7-hydroxy-5-oxo-2-(4-(trifluoromethyl)phenyl)-3,5-dihydro-2H-[1,4]oxazino[2,3,4-ij]quinoline-6-carboxamido)acetic acid] was tested. Which IC50 did it give?
Its IC50 is 12 nM.

Which IC50 does the source give for `N#Cc1ccc(C2Cn3c(=O)c(C(=O)NCC(=O)O)c(O)c4ccc(C(F)(F)F)c(c43)O2)cc1` (single isomer, unassigned) [Example 78, 2-(2-(4-cyanophenyl)-7-hydroxy-10-(trifluoromethyl)-3,5-dihydro-2H-[1,4]oxazino[2,3,4-ij]quinoline-6-carboxamido)acetic acid] here?
Its IC50 is 7.9 nM.

For `O=C(O)CNC(=O)c1c(O)c2c(OC(F)(F)F)ccc3c2n(c1=O)CC(c1ccc(C(F)(F)F)cc1)O3` (single isomer, unassigned) [Example 87, 2-(7-hydroxy-5-oxo-8-(trifluoromethoxy)-2-(4-(trifluoromethyl)phenyl)-3,5-dihydro-2H-[1,4]oxazino[2,3,4-ij]quinoline-6-carboxamido)acetic acid], which IC50 is on record?
The IC50 was 17 nM.

Which IC50 does the source give for `N#Cc1ccc(C2Cn3c(=O)c(C(=O)NCC(=O)O)c(O)c4c(OC(F)(F)F)ccc(c43)O2)cc1` (single isomer, unassigned) [Example 89, 2-(2-(4-cyanophenyl)-7-hydroxy-5-oxo-8-(trifluoromethoxy)-3,5-dihydro-2H-[1,4]oxazino[2,3,4-ij]quinoline-6-carboxamido)acetic acid] here?
The IC50 was 34 nM.
